Blank lines part the entries; values can stand above or below the compound they belong to.
Columns and labels:
[1] = obtained online; cited from earlier work
[2] = system: SKMEL-28 cells; test: In vitro oxidative stress detection; type: cell-based, Human; conditions: positive control, 1 μM, 15 minutes
Experimental: The in vitro oxidative stress was analyzed using the Image-IT® LIVE Green Reactive Oxygen Species Detection Kit from Thermo Fisher according to manufacturer's instructions. SKMEL-28 cells were seeded in a 12-well plate. PcNP was added at a final concentration of 25 μg/mL. After incubation for 12 hours, the cells were labelled with carboxy-H2DCFDA for 10 minutes and washed with PBS. The cells corresponding to the PcNP+hv treatment were irradiated with 730 nm, 0.75 W/cm^2 laser for 20 minutes. A positive control using common ROS production inducer TBHP was added to a final concentration of 1 μM and incubated for 15 minutes. After the treatment, the cell nuclei were labeled with Hoechst 33342 (1 μM). Coverslips were then washed with PBS, fixed and mounted onto microscopy glass slides for imaging by CLSM. Carboxy-H2DCFDA λex/em: 488/529 nm, Hoechst 33342 λex/em: 350/461 nm.

[3] = Topical penetration of porcine skin, IVIS fluorescence; type: in vitro ADME; conditions: regardless of the microneedle treatment
Experimental: Fresh full-thickness porcine skin was obtained from a local wholesaler and cut into 1 cm by 1 cm pieces. The subcutaneous fats were gently stripped from the porcine skin. Any remaining skin was kept frozen at −20° C. and used as soon as possible. A pyramidal stainless steel microneedle patch consisting of 100 needles in a 10×10 array with a height of ˜500 μm, a tip radius of 5 μm, a pitch of ˜700 μm and a base width of ˜300 μm was obtained from Micropoint Technologies Pte Ltd (Singapore). […] PcNP solution at 20 mg/mL concentration was compared against free Pc (equivalent to the concentration of Pc in PcNP at 20 mg/mL). The penetration of PcNP was tested after two durations: 10 minutes and 1 hour. The penetration was conducted with and without the help of the microneedle patch. Briefly, if required, the skin was pierced with the microneedle patch under a force of about 4 N for 10 seconds before its removal. […] The fluorescence intensity of the adsorbed Pc was measured using an IVIS SpectrumCT Pre-clinical in Vivo Imaging System (Perkin Elmer), where λex/em is 640/700-760 nm. […] To calculate the percentage of PcNP that penetrated into the skin, the intensity reading for each skin was normalized against that of PBS and PcNP positive control. In the case of free Pc penetration, this percentage was calculated by normalizing the readings against that of PBS and free Pc positive control.

Compound: CN(C)c1ccc2nc3ccc(=[N+](C)C)cc-3sc2c1 [MB, methylene blue]
singlet oxygen quantum yield ΦΔ(MB), reference value [1]: 0.52

Compound: CC(C)(C)OO [TBHP, tert-Butyl hydroperoxide]
cells oxidatively stressed [2]: about 74%

skin penetration [3]: minimal skin penetration
Compound: c1ccc2c(c1)-c1nc-2nc2[nH]c(nc3nc(nc4[nH]c(n1)c1ccccc41)-c1ccccc1-3)c1ccccc21 [free Pc, Phthalocyanine]

Reference: patent US20210000955A1, “PHOTODYNAMICALLY ACTIVE ORGANOSILICA NANOPARTICLES AND MEDICAL USES THEREOF” (NANYANG TECHNOLOGICAL UNIVERSITY, priority 2017, published 2021)
